From ChEMBL document CHEMBL4052645, “Discovery of potent and efficacious pyrrolopyridazines as dual JAK1/3 inhibitors” (Bioorg Med Chem Lett, 2017)

Tests used:
[1] = biological target: Serine/threonine-protein kinase MRCK beta (Homo sapiens) (UniProt Q9Y5S2); assay: Inhibition of human MRCKB (L56 to S417 residues) expressed in bacterial expression system assessed as residual activity at 50 nM by KINOMEscan assay relative to control
[2] = biological target: Dual specificity mitogen-activated protein kinase kinase 6 (Homo sapiens) (UniProt P52564); assay: Inhibition of wild-type human partial length MAP2K6 (K36 to D334 residues) expressed in bacterial expression system assessed as residual activity at 50 nM by Kinomescan method relative to control
[3] = biological target: RAC-beta serine/threonine-protein kinase (Homo sapiens) (UniProt P31751); assay: Inhibition of wild-type human partial length AKT2 expressed in bacterial expression system assessed as residual activity at 50 nM by Kinomescan method relative to control
[4] = biological target: Interleukin-1 receptor-associated kinase 4 (Homo sapiens) (UniProt Q9NWZ3); assay: Inhibition of wild-type human partial length IRAK4 (M1 to S460 residues) expressed in mammalian expression system assessed as residual activity at 50 nM by Kinomescan method relative to control
[5] = biological target: Tyrosine-protein kinase ITK/TSK (Homo sapiens) (UniProt Q08881); assay: Inhibition of wild-type human partial length ITK (R335 to L620 residues) expressed in bacterial expression system assessed as residual activity at 50 nM by Kinomescan method relative to control
[6] = biological target: Casein kinase I isoform delta (Homo sapiens) (UniProt P48730); assay: Inhibition of wild-type human full length CK1D (M1 to K409 residues) expressed in bacterial expression system assessed as residual activity at 50 nM by Kinomescan method relative to control
[7] = biological target: Ribosomal protein S6 kinase alpha-4 (Homo sapiens) (UniProt O75676); assay: Inhibition of wild-type human partial length C-terminal MSK2 kinase domain 2 (M375 to T705 residues) expressed in mammalian expression system assessed as residual activity at 50 nM by Kinomescan method relative to control
[8] = biological target: Focal adhesion kinase 1 (Homo sapiens) (UniProt Q05397); assay: Inhibition of wild-type human partial length FAK (D402 to R696 residues) expressed in bacterial expression system assessed as residual activity at 50 nM by Kinomescan method relative to control
[9] = biological target: Ribosomal protein S6 kinase alpha-1 (Homo sapiens) (UniProt Q15418); assay: Inhibition of wild-type human partial length N-terminal RSK1 Kinase domain 1 (M1 to E388 residues) expressed in bacterial expression system assessed as residual activity at 50 nM by Kinomescan method relative to control
[10] = biological target: Protein-tyrosine kinase 2-beta (Homo sapiens) (UniProt Q14289); assay: Inhibition of wild-type human full length PYK2 (M1 to E967 residues) expressed in bacterial expression system assessed as residual activity at 50 nM by Kinomescan method relative to control
[11] = biological target: Dual specificity protein kinase CLK3 (Homo sapiens) (UniProt P49761); assay: Inhibition of wild-type human full length CLK3 (M1 to R490 residues) expressed in bacterial expression system assessed as residual activity at 50 nM by Kinomescan method relative to control
[12] = biological target: Casein kinase I isoform epsilon (Homo sapiens) (UniProt P49674); assay: Inhibition of wild-type human full length CK1E (M1 to K416 residues) expressed in bacterial expression system assessed as residual activity at 50 nM by Kinomescan method relative to control
[13] = biological target: Serine/threonine-protein kinase pim-1 (Homo sapiens) (UniProt P11309); assay: Inhibition of wild-type human partial length PIM1 (A15 to K313 residues) expressed in bacterial expression system assessed as residual activity at 50 nM by Kinomescan method relative to control
[14] = biological target: Fibroblast growth factor receptor 4 (Homo sapiens) (UniProt P22455); assay: Inhibition of wild-type human partial length FGFR4 (G402 to E713 residues) expressed in bacterial expression system assessed as residual activity at 50 nM by Kinomescan method relative to control
[15] = biological target: Tyrosine-protein kinase Blk (Homo sapiens) (UniProt P51451); assay: Inhibition of wild-type human partial length BLK (G211 to L503 residues) expressed in bacterial expression system assessed as residual activity at 50 nM by Kinomescan method relative to control
[16] = biological target: Dual specificity mitogen-activated protein kinase kinase 4 (Homo sapiens) (UniProt P45985); assay: Inhibition of wild-type human partial length MAP2K4 (S84 to D399 residues) expressed in mammalian expression system assessed as residual activity at 50 nM by Kinomescan method relative to control
[17] = biological target: Fibroblast growth factor receptor 3 (Homo sapiens) (UniProt P22607); assay: Inhibition of wild-type human partial length FGFR3 (R442 to S771 residues) expressed in bacterial expression system assessed as residual activity at 50 nM by Kinomescan method relative to control
[18] = biological target: MAP kinase-activated protein kinase 5 (Homo sapiens) (UniProt Q8IW41); assay: Inhibition of wild-type human partial length MAPKAPK5 (M1 to D322 residues) expressed in mammalian expression system assessed as residual activity at 50 nM by Kinomescan method relative to control
[19] = biological target: 3-phosphoinositide-dependent protein kinase 1 (Homo sapiens) (UniProt O15530); assay: Inhibition of wild-type human full length PDK1 (M1 to Q556 residues) expressed in bacterial expression system assessed as residual activity at 50 nM by Kinomescan method relative to control
[20] = biological target: Cyclin-dependent kinase 2 (Homo sapiens) (UniProt P24941); assay: Inhibition of wild-type human full length CDK2 (M1 to L298 residues) expressed in bacterial expression system assessed as residual activity at 50 nM by Kinomescan method relative to control
[21] = biological target: Serine/threonine-protein kinase Sgk3 (Homo sapiens) (UniProt Q96BR1); assay: Inhibition of wild-type human partial length SGK3 (M119 to L496 residues) expressed in mammalian expression system assessed as residual activity at 50 nM by Kinomescan method relative to control
[22] = biological target: cGMP-dependent protein kinase 2 (Homo sapiens) (UniProt Q13237); assay: Inhibition of wild-type human partial length PKG2 (S422 to F762 residues) expressed in mammalian expression system assessed as residual activity at 50 nM by Kinomescan method relative to control
[23] = biological target: Receptor-interacting serine/threonine-protein kinase 1 (Homo sapiens) (UniProt Q13546); assay: Inhibition of wild-type human partial length RIPK1 (M1 to K305 residues) expressed in bacterial expression system assessed as residual activity at 50 nM by Kinomescan method relative to control
[24] = biological target: Dual specificity protein kinase CLK2 (Homo sapiens) (UniProt P49760); assay: Inhibition of wild-type human partial length CLK2 (D144 to R498 residues) expressed in bacterial expression system assessed as residual activity at 50 nM by Kinomescan method relative to control
[25] = biological target: LIM domain kinase 2 (Homo sapiens) (UniProt P53671); assay: Inhibition of wild-type human full length LIMK2 (M1 to P638 residues) expressed in bacterial expression system assessed as residual activity at 50 nM by Kinomescan method relative to control

`CC1(C)[C@H](Nc2c(C(N)=O)cnn3cc(-c4ccccc4)cc23)CC[C@]1(C)N` showed an Activity [1] of 29%, an Activity [2] of 100% and an Activity [3] of 100%. For the same compound, the Activity [4] was 100%, the Activity [5] was 89% and the Activity [6] was 98%. It also gave an Activity [7] of 98%, an Activity [8] of 88% and an Activity [9] of 67%. It also gave an Activity [10] of 100%, an Activity [11] of 100% and an Activity [12] of 92%. The Activity [13] was 96%, the Activity [14] was 88% and the Activity [15] was 100%. The Activity [16] was 100%, the Activity [17] was 100% and the Activity [18] was 100%. For the same compound, the Activity [19] was 82%, the Activity [20] was 100% and the Activity [21] was 56%. It also gave an Activity [22] of 87%, an Activity [23] of 92% and an Activity [24] of 69%. For the same compound, the Activity [25] was 92%.

`COc1ccc(-c2cc3c(N[C@@H]4CC[C@](C)(N)C4(C)C)c(C(N)=O)cnn3c2)cn1` showed an Activity [1] of 82%, an Activity [2] of 78% and an Activity [3] of 88%. The Activity [4] was 100%, the Activity [5] was 90% and the Activity [6] was 100%. It also gave an Activity [7] of 100%, an Activity [8] of 88% and an Activity [9] of 100%. The Activity [10] was 93%, the Activity [11] was 96% and the Activity [12] was 87%. The Activity [13] was 93%, the Activity [14] was 91% and the Activity [15] was 95%. It also gave an Activity [16] of 100%, an Activity [17] of 82% and an Activity [18] of 100%. For the same compound, the Activity [19] was 96%, the Activity [20] was 88% and the Activity [21] was 84%. For the same compound, the Activity [22] was 100%, the Activity [23] was 100% and the Activity [24] was 71%. It also gave an Activity [25] of 100%.
